Source: patent US20150164910A1, “ANTIVIRAL COMPOUNDS AND METHODS OF USE” (The Regents of the University of Califonia, priority 2012, published 2015)

Experiments:
[1] = test system: CVB3-H3; test: Plaque reduction assay, CVB3-H3 in HeLa-RW cells; type: cell-based, coxsackievirus B3; settings: compound added 30 min before infection, CVB3-H3 MOI 1, HeLa-RW, 6 hours; log10(titer with DMSO only/titer with inhibitor)
[2] = test system: eGFP-expressing recombinant CVB3; type: cell-based, coxsackievirus B3; settings: eGFP-CVB3 m.o.i=1, compound added at time of infection, 6 hr post infection; 1-(% eGFP+ cells with compound/% with DMSO only); further: test concentration or dose not given here

Compound	Log10 reduction of virus titer [1]	Inhibition of infected cells [2]
c1ccc2[nH]c(CN3CCCC3)nc2c1 [Compound 40, 2-(1-Pyrrolidinylmethyl)-1H-benzimidazole]	4.0	100%
OC(c1ccccc1)c1nc2ccccc2n1-c1ccccc1 (stereo not drawn) [Compound 41, Phenyl(1-phenyl-1H-benzimidazol-2-yl)methanol]	4.1	100%
Nc1nnc(SCc2nc3cc(Cl)ccc3n2Cc2ccccc2)s1 [Compound 43, 5-{[(1-Benzyl-5-chloro-1H-benzimidazol-2-yl)methyl]sulfanyl}-1,3,4-thiadiazol-2-amine]	0.3	91.3%
CCOc1ccc(C(=O)N2CCC(C(=O)c3ccc4c(c3)OCCO4)CC2)cc1 [Compound 44, 2,3-Dihydro-1,4-benzodioxin-6-yl[1-(4-ethoxybenzoyl)-4-piperidinyl] methanone]	0.2	84.9%
O=C(c1ccc2c(c1)OCCO2)C1CCN(C(=O)c2ccc(-n3cccn3)cc2)CC1 [Compound 46, 2,3-Dihydro-1,4-benzodioxin-6-yl {1-[4-(1H-pyrazol-1-yl)benzoyl]-4-piperidinyl}methanone]	1.3	82.6%
CCCSc1nc2ccccc2c(=O)n1Cc1ccccc1 [Compound 47, 3-Benzyl-2-(propylsulfanyl)-4(3H)-quinazolinone]	4.1	100%
C#CCSc1nc2ccccc2c(=O)n1Cc1ccccc1 [Compound 48, 3-Benzyl-2-(2-propyn-1-ylsulfanyl)-4(3H)-quinazolinone]	4.5	100%
COc1ccc2nc(C)n3c4ccccc4c(NC(C)=O)c3c2c1 [Compound 49, N-(2-Methoxy-6-methylindolo[1,2-c]quinazolin-12-yl)acetamide]	1.0	17.2%
Cc1nc2ccccc2c2c(NC(=O)c3cnccn3)c3ccccc3n12 [Compound 50, N-(6-Methylindolo [1,2-c]quinazolin-12-yl)-2-pyrazinecarboxamide]	2.5	69.9%
O=C(N/N=C1/c2ccccc2-c2nc3ccccc3nc21)c1cccnc1 [Compound 51, N′-[(11Z)-11H-Indeno[1,2-b]quinoxalin-11-ylidene] nicotinohydrazide]	0.1	1.6%
COc1ccc(CCC2CCN(Cc3cc(=O)n4ccccc4n3)CC2)cc1 [Compound 52, 2-({4-[2-(4-Methoxyphenyl)ethyl]-1-piperidinyl}methyl)-4H-pyrido[1,2-a]pyrimidin-4-one]	0.0	57.7%
Brc1ccc(-c2csc3ncnc(Sc4nnc(C5CC5)o4)c23)cc1 [Compound 53, 5-(4-Bromophenyl)-4-[(5-cyclopropyl-1,3,4-oxadiazol-2-yl)sulfanyl]thieno [2,3-d]pyrimidine]	1.8	100%
COc1ccc(-c2csc3ncn(CC(=O)c4ccc5c(c4)OCO5)c(=O)c23)cc1OC [Compound 54, 3-[2-(1,3-Benzodioxol-5-yl)-2-oxoethyl]-5-(3,4-dimethoxyphenyl) thieno[2,3-d]pyrimidin-4 (3H)-one]	3.2	87.6%
Cc1ccc([S+]([O-])Nc2cccc(C(=O)O)c2)cc1 (stereo not drawn) [Compound 55, 3-{[(4-Methylphenyl)sulfinyl]amino} benzoic acid]	2.5	98.4%
O=C(O)c1cccc(NS(=O)(=O)c2ccc(-c3ccccc3)cc2)c1 [Compound 56, 3-[(4-Biphenylylsulfonyl)amino] benzoic acid]	0.3	85.4%
